According to ChEMBL document CHEMBL5523701, “Structure-based discovery of small molecule inhibitors of FKBP51-Hsp90 protein-protein interaction” (Eur J Med Chem, 2024):

What was measured:
[1] = target: T1, Peptidyl-prolyl cis-trans isomerase FKBP4 (Homo sapiens, UniProt Q02790); assay: Binding affinity to GST-tagged human FKBP52 expressed in Escherichia coli BL21 (DE3) immobilized in CM7 sensor chip assessed as equilibrium dissociation constant by SPR analysis
T1 sequence (Q02790 whole entry): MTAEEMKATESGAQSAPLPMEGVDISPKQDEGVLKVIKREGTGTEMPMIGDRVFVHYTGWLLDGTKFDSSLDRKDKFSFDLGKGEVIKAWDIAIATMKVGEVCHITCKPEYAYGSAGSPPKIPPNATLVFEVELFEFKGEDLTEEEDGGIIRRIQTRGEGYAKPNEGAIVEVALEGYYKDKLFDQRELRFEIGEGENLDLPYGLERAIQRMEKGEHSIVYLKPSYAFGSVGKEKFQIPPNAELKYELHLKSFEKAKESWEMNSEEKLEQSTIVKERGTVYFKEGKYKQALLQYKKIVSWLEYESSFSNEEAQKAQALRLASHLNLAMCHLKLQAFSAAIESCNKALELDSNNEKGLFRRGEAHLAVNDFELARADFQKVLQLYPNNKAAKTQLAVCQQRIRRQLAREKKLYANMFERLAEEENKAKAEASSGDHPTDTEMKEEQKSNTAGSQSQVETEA

HEK293 = assay: Induction of cell proliferation in HEK293 cells at 10 uM measured for 1 to 4 hrs by MTT assay relative to control; assay type: functional, Homo sapiens; conditions: time 1-4 hrs
[2] = Inhibition of GST-tagged FKBP51 N381Y mutant (unknown origin) using NH2-EDASRMEEVD-COOH peptide as substrate preincubated for 15 mins followed by substrate addition measured after 15 mins by Alpha Screen assay; set-up: species or system Homo sapiens

Kd [1]: 745 µM | IC50 [2]: 0.5 µM
Compound: COC(=O)c1c(NC(=O)CSc2nnc(-c3ccco3)c(-c3ccco3)n2)sc(C)c1C
Activity (HEK293): 10%
